This note sets out measurements from ChEMBL document CHEMBL4602681, “Quintaquinone, a Merosesquiterpene from the Yellow Sponge Verongula cf. rigida Esper” (J Nat Prod, 2020).

For one assay, the system named is HeLa. Nature of the assay: Antiproliferative activity against human HeLa cells assessed as reduction in cell viability after 72 hrs by sulforhodamine B assay. Type of assay: functional, cell-based.
The test system of another assay is MCF7. Nature of the assay: Antiproliferative activity against human MCF7 cells assessed as reduction in cell viability after 72 hrs by sulforhodamine B assay. Type of assay: functional, cell-based. The following applies: MCF7, 72 h.
In the next assay the test system is LNCaP. Nature of the assay: Inhibition of steroid 5-alpha-reductase in human LNCAP cells assessed as reduction in 5- dihydrotestosterone formation at 100 uM incubated for 60 mins by LC-MS analysis relative to control. It counts as cell-based.
For another assay, the system named is PC-3. Nature of the assay: Antiproliferative activity against human PC3 cells assessed as reduction in cell viability by MTT assay. It counts as functional, cell-based.
Assay [1] can be described thus: Inhibition of steroid 5-alpha-reductase in human LNCAP cells assessed as reduction in 5- dihydrotestosterone formation incubated for 60 mins by LC-MS analysis. Type of assay: cell-based. The following applies: 1 h.

In the case of `C=C1CCC[C@H]2[C@](C)(CC3=C(O)C(=O)C(CCCCC(C)=O)=C(OC)C3=O)[C@@H](C)CC[C@]12C`, the IC50 in the assay with HeLa, in the assay with MCF7 and in the assay on PC-3 was above 10 µM throughout. The inhibition with LNCaP is below 50%.
Regarding `COC1=CC(=O)C(O)=C(C/C=C(\C)CC/C=C(\C)CCC=C(C)C)C1=O`, the half-maximal inhibitory concentration (IC50) in the assay on HeLa, with MCF7 and in the assay on PC-3 was above 10 µM in each case. In addition, the inhibition with LNCaP was below 50%.
As for `COC(=O)c1cc(O)c(O)c(C[C@H]2C(C)=CC[C@H]3C(C)(C)CCC[C@]23C)c1`, the IC50 in the assay on HeLa, in the assay on MCF7 and with PC-3 was above 10 µM each time. Besides, in the assay on LNCaP, the inhibition is below 50%.
As for `COC1=CC(=O)C2=C(C[C@H]3[C@]4(C)CCCC(C)(C)[C@H]4CC[C@@]3(C)O2)C1=O`, the IC50 in assay [1] was 0.73 µM; in the assay on HeLa, above 10 µM; in the assay on MCF7 it was above 10 µM; in the assay with PC-3, above 10 µM.
In the case of `C=C1CCC[C@H]2[C@](C)(CC3=C(O)C(=O)C=C(OC)C3=O)[C@@H](C)CC[C@]12C` [ILIMAQUINONE], the IC50 with HeLa, in the assay on MCF7 and in the assay with PC-3 was above 10 µM in each case. Besides, the inhibition with LNCaP is below 50%.
For the compound `C=C1CCC[C@H]2[C@](C)(CC3=C(O)C(=O)C=C(NCC(C)C)C3=O)[C@@H](C)CC[C@]12C`, the 50% inhibitory concentration (IC50) in the assay with HeLa, in the assay with MCF7 and in the assay on PC-3 was above 10 µM throughout. For the same compound, in the assay on LNCaP, the inhibition was below 50%.
With `C=C1CCC[C@H]2[C@](C)(CC3=C(O)C(=O)C=C(OC)C3=O)[C@@H](C)CC[C@@]12C`, the IC50 in the assay with HeLa, in the assay on MCF7 and with PC-3 was above 10 µM throughout. For the same compound, the inhibition in the assay on LNCaP was below 50%.
With `CC(C)(C)NC(=O)[C@H]1CC[C@H]2[C@@H]3CC[C@H]4NC(=O)C=C[C@]4(C)[C@H]3CC[C@]12C` [FINASTERIDE], the IC50 in assay [1] was determined as 0.76 µM.
Regarding `COC(=O)c1cc(C[C@H]2C(C)=CC[C@H]3C(C)(C)CCC[C@]23C)c(O)c(O)c1O`, the IC50 in the assay on HeLa, with MCF7 and in the assay on PC-3 was above 10 µM in each case. In addition, the inhibition in the assay with LNCaP is below 50%.
Regarding `C=C1CCC[C@H]2[C@](C)(CC3=C(O)C(=O)C=C(NCCc4ccccc4)C3=O)[C@@H](C)CC[C@]12C`, the IC50 in the assay with HeLa, in the assay with MCF7 and in the assay with PC-3 was above 10 µM each time. Besides, the inhibition in the assay with LNCaP was below 50%.
